We go through 13 compounds from US20240324596A1, “SUBSTITUTED TOLYL FUNGICIDES” (FMC CORPORATION, priority 2023, published 2024).

Tested on in the first data set: not given
Experiment: not given
Conditions: not given
One may read the melting point as the temperature of the solid-liquid transition. Turning to `COC(=O)NCc1cc(-c2ccn(-c3c(F)cc([N+](=O)[O-])cc3F)n2)ccc1C` [Compound 1, methyl N-[[5-[1-(2,6-difluoro-4-nitrophenyl)-1H-pyrazol-3-yl]-2-methyl-phenyl]methyl]carbamate], the melting point was in the range of 131 to 134 °C.

The compound `COC(=O)NCc1cc(-c2ccn(-c3c(F)cc(N)cc3F)n2)ccc1C` [Compound 5, methyl N-[[5-[1-(4-amino-2,6-difluorophenyl)-1H-pyrazol-3-yl]-2-methyl-phenyl]methyl]carbamate] yielded a melting point of 168 to 171 °C.

`COC(=O)NCc1cc(-c2ccn(-c3c(F)cc(Br)cc3F)n2)ccc1C` [Compound 7, methyl N-[[5-[1-(4-bromo-2,6-difluorophenyl)-1H-pyrazol-3-yl]-2-methyl-phenyl]methyl]carbamate] registered a melting point of 138 to 139 °C.

In turn, `COC(=O)NCc1cc(-c2ccn(-c3c(F)cc(O)cc3F)n2)ccc1C` [Compound 10, methyl N-[[5-[1-(2,6-difluoro-4-hydroxyphenyl)-1H-pyrazol-3-yl]-2-methylphenyl]methyl]carbamate] returned a melting point of 178 to 180 °C.

Regarding `COC(=O)NCc1cc(-c2ccn(-c3c(F)cc(OC(C)C)cc3F)n2)ccc1C` [Compound 14, methyl N-[[5-[1-[2,6-difluoro-4-(1-methylethoxy)phenyl]-1H-pyrazol-3-yl]-2-methylphenyl]methyl]carbamate], the melting point lay in the range of 133 to 134 °C.

`COC(=O)NCc1cc(-c2ccn(-c3c(F)cc(C=O)cc3F)n2)ccc1C` [Compound 67, methyl N-[[5-[1-(2,6-difluoro-4-formylphenyl)-1H-pyrazol-3-yl]-2-methyl-phenyl]methyl]carbamate] gave a melting point of 156 to 160 °C.

In the case of `COC(=O)NCc1cc(-c2ccn(-c3c(F)cc(C(=O)OC)cc3F)n2)ccc1C` [Compound 70, methyl 3,5-difluoro-4-[3-[3-[[(methoxycarbonyl)amino]methyl]-4-methyl-phenyl]-1H-pyrazol-1-yl]benzoate], the melting point was in the range of 120 to 122 °C.

For the compound `COC(=O)NCc1cc(-c2ccn(-c3c(F)cc(CO)cc3F)n2)ccc1C` [Compound 71, methyl N-[[5-[1-[2,6-difluoro-4-(hydroxymethyl)phenyl]-1H-pyrazol-3-yl]-2-methylphenyl]methyl]carbamate], the melting point was in the range of 183 to 184 °C.

For the compound `COC(=O)NCc1cc(-c2ncn(-c3c(F)cc(Cl)cc3F)n2)ccc1C` [Compound 105], the melting point was 166 to 170 °C.

In turn, `COC(=O)NCc1cc(-c2cnn(-c3c(F)cc(N)cc3F)n2)ccc1C` [Compound 115, methyl N-[[5-[2-(4-amino-2,6-difluorophenyl)-2H-1,2,3-triazol-4-yl]-2-methylphenyl]methyl]carbamate] showed a melting point of 144 to 148 °C.

For the compound `COC(=O)NCc1cc(-c2cnn(-c3c(F)cc(Cl)cc3F)n2)ccc1C` [Compound 117, methyl N-[[5-[2-(4-chloro-2,6-difluorophenyl)-2H-1,2,3-triazol-4-yl]-2-methylphenyl]methyl]carbamate], the melting point fell in the range of 108 to 112 °C.

Compound `COC(=O)NCc1cc(-c2cnn(-c3c(F)cc([N+](=O)[O-])cc3F)n2)ccc1C` [Compound 118, methyl N-[[5-[2-(2,6-difluoro-4-nitrophenyl)-2H-1,2,3-triazol-4-yl]-2-methyl-phenyl]methyl]carbamate] returned a melting point of 152 to 156 °C.

Turning to `COC(=O)NCc1cc(-c2cn(-c3c(F)cc([N+](=O)[O-])cc3F)nn2)ccc1C` [Compound 132, methyl N-[[5-[1-(2,6-difluoro-4-nitrophenyl)-1H-1,2,3-triazol-4-yl]-2-methylphenyl]methyl]carbamate], the melting point was in the range of 174 to 178 °C.

For a further data set, the system named is Phakopsora pachyrhizi. The experiment in a line: Test D: preventive spray on soybean seedlings, Asian soybean rust disease rating. The data set is classed as in vivo. To be noted: 216 h, 100 = 100% disease control, 0 = no control. From the text:
(§1) General protocol for preparing test suspensions for Tests A-F: the test compounds were first dissolved in acetone in an amount equal to 3% of the final volume and then suspended at the desired concentration (in ppm) in acetone and purified water (50/50 mix by volume) containing 250 ppm of the surfactant PEG400 (polyhydric alcohol esters). The resulting test suspensions were then used in Tests A-F.
The test solution was sprayed to the point of run-off on soybean seedlings. The following day the seedlings were inoculated with a spore suspension of Phakopsora pachyrhizi (the causal agent of Asian soybean rust) and incubated in a saturated atmosphere at 22° C. for 24 h and then moved to a growth chamber at 22° C. for 8 days, after which time visual disease ratings were made.
(§2) A rating of 100 indicates 100% disease control and a rating of 0 indicates no disease control (relative to the controls). A dash (-) indicates the compound was not tested.
One may read the pest or weed control as the degree to which the test organism was suppressed or injured, in per cent. `COC(=O)NCc1cc(-c2ncn(-c3c(F)cc(Cl)cc3F)n2)ccc1C` [Compound 105] showed a pest or weed control at 10 ppm of 92%.

The next data set deals with Puccinia recondita f. sp. tritici. Description: Test B: preventive spray on wheat seedlings, wheat leaf rust disease rating. It is filed as in vivo. The settings on record: 192 h, 100 = 100% disease control, 0 = no control.
From the text: as §1
The test solution was sprayed to the point of run-off on wheat seedlings. The following day the seedlings were inoculated with a spore suspension of Puccinia recondita f. sp. tritici (the causal agent of wheat leaf rust) and incubated in a saturated atmosphere at 20° C. for 24 h, and then moved to a growth chamber at 20° C. for 7 days, after which time disease ratings were made.
as §2
Consider `COC(=O)NCc1cc(-c2ncn(-c3c(F)cc(Cl)cc3F)n2)ccc1C` [Compound 105], for which the pest or weed control at 10 ppm is 100%.
